Results reported in patent US5405843A, “Quinoline derivatives” (Mitsui Toatsu Chemicals, Incorporated, priority 1988, dated 1995).

Columns and labels:
[1] = test system: Adriamycin resistant strain 2780 AD cells of human ovarian cancer A2780 cells; assay: Potentiating effect on incorporation of 3H-vincristine into adriamycin-resistant cancer cells; assay type: cell-based; conditions: Homo sapiens, 2780AD, 2 h, 20 nM 3H-vincristine, control = 100, read-out: 3H-vincristine accumulation; for activity at 1 µg/mL: compound 1 μg/ml; for activity at 10 µg/mL: compound 10 μg/ml
Procedure: Potentiating Effect of the Compounds on Incorporation of Anticancer Drugs into Drug-resistant Cancer Cells
Adriamycin resistant strain 2780 AD cells of human ovarian cancer A2780 cells (A. M. Rogan et al., Science 224, 994-996, 1984) were suspended at a concentration of 1×10^6 /ml in RPMI-1640 medium supplemented with 5% fetal calf serum, and 1 ml of the cancer cell suspension was dispensed into each well of a multi-well culture plate (24 wells, […] in diameter) and then incubated at 37° C. in an atmosphere of 5% CO2. After 24 hours incubation, the medium in each well was replaced by 0.5 ml of RPMI-1640 medium supplemented containing 20 nM ^3 H-vincristine (1×10^4 dpm/pmol), 5% fetal calf serum and 10 mM Hepes buffer. Five microliters of a solution of the compound to be tested, which had been dissolved in DMSO and diluted with […] (at a concentration of 1.0 microgram/ml or 10.0 micrograms/ml), was added to each well and the incubation was continued at 37° C. in 5% CO2 for 2 hours. The resultant cells were washed in cold saline-phosphate buffer. In each well was added 0.5 ml of 0.2N NaOH, and the resulting cell suspension in each well was independently transferred into a vial and then heated in a water bath at 56° C. for 30-60 minutes to dissolve the cells. After adding 4 ml of acid aquazole 2, the amount of ^3 H-vincristine incorporated into the cells was determined by a fluid scintillation counter.

[2] = test system: Vincristine-resistant strain P388/VCR cells of mouse leukemia P388 cells; assay: Potentiating effect on vincristine in mice having vincristine-resistant mouse leukemia (survival); assay type: in vivo, mouse (female CDFI mice); conditions: peritoneal, once a day for 5 days; for T/C (rate of life prolongation): control = 100
[3] = test system: Adriamycin resistant strain K562/ADM cells of human myeloleukemia K562 cells; assay: Potentiating effect on activity of vincristine against adriamycin-resistant cells (growth inhibition); assay type: cell-based; conditions: for effect in potentiating vincristine activity, multiples of the control: ratio to control IC50 655
Excerpt: Potentiating Effect of the Compounds on Activity of Anticancer Drugs

[4] = compound 30 mg/kg + vincristine 100 ug/kg
[5] = compound 3 mg/kg + vincristine 100 ug/kg

SMILES	activity at 1 µg/mL [1] [%]	Average surviving period [2, 4] [days]	T/C (rate of life prolongation) [2, 4] [%]	activity at 10 µg/mL [1] [%]	IC50 ([3]; Homo sapiens, K562, read-out: IC50 (vincristine concentration at which 50% of the growth was inhibited)) [µg/mL]	effect in potentiating vincristine activity, multiples of the control ([3]; compound 0.3 μg/ml)	effect in potentiating vincristine activity, multiples of the control ([3]; compound 1 μg/ml)	effect in potentiating vincristine activity, multiples of the control ([3]; compound 3 μg/ml)	Average surviving period [2, 5] [days]	T/C (rate of life prolongation) [2, 5] [%]
c1ccc(C(c2ccccc2)N2CCN(CCOc3cccc4ncccc34)CC2)cc1 [Example 34, 5-[2-(4-Diphenylmethylpiperazine-1-yl)ethoxy]quinoline]	785	10.8 ± 0.8	98							
CCc1cnc2cccc(OCC(O)CN3CCN(C(c4ccccc4)c4ccccc4)CC3)c2c1 (centres unmarked) [Example 12, 3-Ethyl-5-[3-(4-diphenylmethylpiperazine-1-yl)-2-hydroxypropoxy]quinoline]	568	12.5 ± 0.5	114	831						
OC(COc1cccc2ncccc12)CN1CCN(C(c2ccccc2)c2ccc(Cl)cc2)CC1 (centres unmarked) [Example 58, 5-(3-[4-((4-Chlorophenyl)-phenylmethyl)piperazine-1-yl]-2-hydroxypropoxy)quinoline]	619	13.8 ± 1.8	130	843						
Cc1cc(C(F)(F)F)nc2cccc(OCC(O)CN3CCN(C(=O)C(c4ccccc4)c4ccccc4)CC3)c12 (stereo not drawn) [Example 55, 2-Trifluoromethyl-4-methyl-5-[3-(4-(α,α-diphenylacetyl)piperazine-1-yl)-2-hydroxypropoxy]quinoline]	452	12.7 ± 0.3	120	756						
COc1ccc(C(c2ccc(OC)cc2)N2CCN(CC(O)COc3cccc4ncccc34)CC2)cc1 (centres unmarked) [Example 59, 5-(3-[4-(Bis-(4-methoxyphenyl)methyl)piperazine-1-yl] -2-hydroxypropoxy)quinoline]	561	13.2 ± 1.2	125	685						
c1ccc2c(c1)CCc1ccccc1C2N1CCN(CCCOc2cccc3ncccc23)CC1 [Example 83, 5-[3-(4-(Dibenzosuberane-5-yl)piperazine-1-yl)propoxy]quinoline]	957	13.5 ± 0.5	126							
OC(COc1cccc2ncccc12)CN1CCC(=C(c2ccccc2)c2ccccc2)CC1 (centres unmarked) [Example 13, 5-[3-(4-(Diphenylmethylene)piperidine-1-yl)-2-hydroxypropoxy]quinoline]	517	15.3 ± 0.5	139	805						
COc1ccc2c(OCC(O)CN3CCN(C4c5ccccc5CCc5ccccc54)CC3)cccc2n1 (centres unmarked) [Example 9, 5-[3-(4-(Dibenzosuberane-5-yl)piperazine-1-yl)-2-hydroxypropoxy]-2-methoxyquinoline]	721	14.2 ± 0.6	134	947						
OC(COc1cccc2ncccc12)CN1CCC(C2c3ccccc3CCc3ccccc32)CC1 (centres unmarked) [Example 81, 5-[3-(4-(Dibenzosuberane-5-yl)piperidine-1-yl)-2-hydroxypropoxy]quinoline]	992	13.2 ± 0.9	123							
CC[C@]1(O)C[C@H]2CN(CCc3c([nH]c4ccccc34)[C@@](C(=O)OC)(c3cc4c(cc3OC)N(C=O)[C@H]3[C@@](O)(C(=O)OC)[C@H](OC(C)=O)[C@]5(CC)C=CCN6CC[C@]43[C@@H]65)C2)C1 [Vincristine, vincristine, reference compound]					0.655					
Cc1cc(C)c2c(OCC(O)CN3CCN(C(c4ccccc4)c4ccccc4)CC3)cccc2n1 (centres unmarked) [Example 5, 2,4-Dimethyl-5-[3-(4-diphenylmethylpiperazine-1-yl)-2-hydroxypropoxy]quinoline]	732	12.8 ± 0.8	124							
CCN(CCN(CC)C(c1ccccc1)c1ccccc1)CC(O)COc1cccc2ncccc12 (centres unmarked) [Example 10, 5-(3-[N-(2-(N-Diphenylmethyl-N-ethylamino)ethyl)-N-ethylamino]-2-hydroxypropoxy)quinoline]	642	12.3 ± 1.4	112	932						
OC(COc1cccc2ncccc12)CN1CCN(C(c2ccccc2)c2ccccn2)CC1 (centres unmarked) [Example 15, 5-[2-Hydroxy-3-(4-(phenyl-2-pyridylmethyl)piperazine-1-yl)propoxy]quinoline]	840	12.3 ± 0.4	117							
Cc1cc(C)c2c(OCC(O)CN3CCN(C(=O)C(c4ccccc4)c4ccccc4)CC3)cccc2n1 (stereo not drawn) [Example 53, 2,4-Dimethyl-5-[3-((α,α-diphenylacetyl)piperazine-1-yl)-2-hydroxypropoxy]quinoline]	658	11.8 ± 0.8	111	794						
OC(COc1cccc2ncccc12)CN1CCN(C2c3ccccc3CCc3ccccc32)CC1 (centres unmarked) [Example 2, 5-[3-(4-(Dibenzosuberane-5-yl)piperazine-1-yl)-2-hydroxypropoxy]quinoline]	663	15.2 ± 0.7	136	709		330.3	388.0	550.0	12.6 ± 0.2	113
OC(COc1cccc2ncccc12)CN1CCCN(C(c2ccccc2)c2ccccc2)CC1 (centres unmarked) [Example 4, 5-[3-(4-Diphenylmethylhomopiperazine-1-yl)-2-hydroxypropoxy]quinoline]	438	11.8 ± 0.4	107	770						
OC(COc1cccc2ncccc12)CN1CCC(=C2c3ccccc3CCc3ccccc32)CC1 (centres unmarked) [Example 80, 5-[3-(4-(Dibenzosuberane-5-ylidene)piperidine-1-yl)-2-hydroxypropoxy]quinoline]	942	14.3 ± 0.6	134							
OC(COc1cccc2ncccc12)CN1CCC(C(O)(c2ccccc2)c2ccccc2)CC1 (centres unmarked) [Example 7, 5-[3-(4-(Diphenyl-hydroxymethyl)piperidine-1-yl)-2-hydroxypropoxy]quinoline]	972	12.9 ± 0.5	123							
COc1ccc(C(c2cccc(OC)c2OC)N2CCN(CC(O)COc3cccc4ncccc34)CC2)cc1OC (centres unmarked) [Example 11, 5-[3-(4-(2,3,3',4'-Tetramethoxydiphenylmethyl)piperazine-1-yl)-2-hydroxypropoxy]quinoline]	735	12.1 ± 0.5	115							
OC(COc1cccc2nc(Cl)ccc12)CN1CCN(C(c2ccccc2)c2ccccc2)CC1 (centres unmarked) [Example 41, 2-Chloro-5-[3-(4-diphenylmethylpiperazine-1-yl)-2-hydroxypropoxy]quinoline]	584	13.2 ± 1.8	120							
O=C(CCN1CCN(C(c2ccccc2)c2ccccc2)CC1)Nc1cccc2ncccc12 [Example 35, 5-[3-(4-Diphenylmethypiperazine-1-yl)propionamido]-quinoline]	654	11.9 ± 0.7	116	627						
COc1ccc2c(OCC(O)CN3CCN(C(c4ccccc4)c4ccccc4)CC3)cccc2n1 (centres unmarked) [Example 42, 5-[3-(4-Diphenylmethylpiperazine-1-yl)-2-hydroxypropoxy]-2-methoxyquinoline]	624	13.9 ± 2.4	126							
